# Data as given in patent publication US20230293640A1, “COMPOUNDS FOR THE TREATMENT OF ENDOTHELIITIS IN CONTEXT OF VIRALLY CAUSED DISEASES” (F4 PHARMA GMBH, priority 2020, published 2023).
# Where a SMILES comes first, the peptide text is derived from it.
# Tests used:
# [1] = human, in vivo; cited from earlier work
# [2] = test system: COVID-19-associated severe ARDS; conditions: data of the 3 patients of example 2
# Source text: Example 2: Critically ill patients suffering from a COVID-19 infection in a second university care centre.
# To this date, we treated three patients in individualized therapeutic attempts with FX06 in the second university care center.
# All three patients were diagnosed with SARS-CoV-2 pneumonia resulting in severe acute respiratory distress syndrome (ARDS) and required extracorporeal membrane oxygenation (ECMO) therapy upon or early during their treatment in our facility. All patients were referred to our hospital from basic care providers due to the severity of their conditions. All patients required ECMO therapy at the time of FX06 treatment.
# FX06 400 mg was administered once per day after informed consent by the close relative.
structure (smiles),measurement,setting,value
CC[C@H](C)[C@H](NC(=O)[C@@H]1CCCN1C(=O)[C@@H]1CCCN1C(=O)[C@@H]1CCCN1C(=O)[C@H](C)NC(=O)[C@@H]1CCCN1C(=O)[C@H](CCCNC(=N)N)NC(=O)[C@H](CC(C)C)NC(=O)[C@H](CO)NC(=O)[C@@H]1CCCN1C(=O)[C@H](C)NC(=O)[C@H](CCC(=O)O)NC(=O)[C@H](CCC(=O)O)NC(=O)[C@H](CCCNC(=N)N)NC(=O)[C@H](CCCCN)NC(=O)[C@H](CCCCN)NC(=O)[C@H](CC(=O)O)NC(=O)[C@H](CC(C)C)NC(=O)[C@@H]1CCCN1C(=O)[C@H](CCCNC(=N)N)NC(=O)[C@H](Cc1c[nH]cn1)NC(=O)CN)C(=O)N[C@@H](CO)C(=O)NCC(=O)NCC(=O)NCC(=O)N[C@@H](Cc1ccc(O)cc1)C(=O)N[C@@H](CCCNC(=N)N)C(=O)O [FX06] (H-GHRPLDKKREEAPSLRPAPPPISGGGYR-OH),tolerability / safety profile in clinical trials,[1],well tolerated with a benign safety profile
same,safety in severe ARDS,[2],safe to use
